Solubility and aqueous solubility data for four compounds are collected here from patent EP0280461A2, “Dobutamine salts” (ELI LILLY AND COMPANY, priority 1987, dated 1988).

The series can be described thus: aqueous solubility at 25°C. Type of series: physicochemical. The following applies: water.

Where a name gives a salt, the structure may show the parent alone.

Take `CC(CCc1ccc(O)cc1)NCCc1ccc(O)c(O)c1` (racemic) [Dobutamine phosphate dibasic, dobutamine phosphate dibasic]: the solubility (usually how much of the substance goes into solution per volume) (room temperature (25°C)) was roughly 25 mg/mL.

`CC(CCc1ccc(O)cc1)NCCc1ccc(O)c(O)c1` (racemic) [dobutamine phosphate monobasic] had a solubility (at 25°C) of roughly 2000 mg/mL.

As for `CC(CCc1ccc(O)cc1)NCCc1ccc(O)c(O)c1` (stereo not shown) [dobutamine hydrobromide], under “room temperature (25°C), hydrobromide”, the aqueous solubility entry is on record as “about 28 mg per ml of water”.

`CC(CCc1ccc(O)cc1)NCCc1ccc(O)c(O)c1` (stereo not shown) [dobutamine hydrochloride] yielded a solubility (room temperature (25°C)) of 28 mg/mL.
